Reference: US20060040984A1, “Novel piperidine derivatives for use in the treatment of chemokine medicated disease states” (priority 2002, published 2006)

Biological target: T1, CCR3 (Homo sapiens, UniProt P51677)
T1 construct: Human eosinophils were isolated from EDTA anticoagulated peripheral blood; endogenous in cells; host or cells: human peripheral blood eosinophils
T1 sequence (P51677 1-355): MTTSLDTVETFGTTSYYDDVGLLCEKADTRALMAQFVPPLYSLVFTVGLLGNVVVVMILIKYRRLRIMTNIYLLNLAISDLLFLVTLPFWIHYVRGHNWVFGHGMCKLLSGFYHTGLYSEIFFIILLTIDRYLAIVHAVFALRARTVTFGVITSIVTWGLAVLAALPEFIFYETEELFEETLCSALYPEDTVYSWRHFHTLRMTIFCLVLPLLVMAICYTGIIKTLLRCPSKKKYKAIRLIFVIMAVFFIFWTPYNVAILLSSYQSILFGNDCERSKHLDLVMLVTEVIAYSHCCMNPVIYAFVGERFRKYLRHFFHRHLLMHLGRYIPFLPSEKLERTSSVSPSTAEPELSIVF
Test: Human eosinophil chemotaxis (eotaxin mediated)
Assay type: cell-based
Conditions: read-out: % inhibition at 1 μM, 1 μM compound, human eosinophils
Experimental: Human Eosinophil Chemotaxis
Human eosinophils were isolated from EDTA anticoagulated peripheral blood as previously described (Hansel et al., J. Immunol. Methods, 1991, 145, 105-110). The cells were resuspended at 10×10^6 mL-1 in RPMI containing 200 IU/mL penicillin, 200 μg/mL streptomycin sulfate and supplemented with 10% HIFCS, at room temperature.
Eosinophils (700 μl) were pre-incubated for 15 mins at 37° C. with 7 μl of either vehicle or compound (100× required final concentration in 10% DMSO). […] The filter was then placed over the wells and 25 μl of eosinophil suspension were added to the top of the filter. The plate was incubated for 1 hr at 37° C. in a humidified incubator with a 95% air/5% CO2, atmosphere to allow chemotaxis.
The medium, containing cells that had not migrated, was carefully aspirated from above the filter and discarded. The filter was washed once with phosphate buffered saline (PBS) containing 5 mM EDTA to remove any adherent cells. Cells that had migrated through the filter were pelleted by centrifugation (300×g for 5 mins at room temperature) and the filter removed and the supernatant transferred to each well of a 96-well plate (Costar). The pelleted cells were lysed by the addition of 28 μl of PBS containing 0.5% Triton ×100 followed by two cycles of freeze/thawing. The cell lysate was then added to the supernatant. The number of eosinophils migrating was quantified according to the method of Strath et al., J. Immunol. Methods, 1985, 83, 209 by measuring eosinophil peroxidase activity in the supernatant.

With `COc1ccccc1C(C(=O)O)N1CCC(CN2CCC(Oc3ccc(Cl)c(Cl)c3)CC2)CC1` (stereo not drawn) [Example 4, 4-[[4-(3,4-Dichlorophenoxy)-1-piperidinyl]methyl]-α-(2-methoxyphenyl)-1-piperidineacetic acid] as the compound, how does the inhibition at 1 µM read?
The inhibition at 1 µM was 90%.

How did the inhibition at 1 µM turn out when `COc1ccccc1C(C(=O)O)N1CCC(CN2CCC(Oc3ccc(Cl)cc3C)CC2)CC1` (stereo not drawn) [Example 10, 4-[[4-(4-Chloro-2-methylphenoxy)-1-piperidinyl]methyl]-α-(2-methoxyphenyl)-1-piperidineacetic acid] was run?
The inhibition at 1 µM was 108%.

`Cc1ccc(C(C(=O)O)N2CCC(CN3CCC(Oc4ccc(Cl)cc4C)CC3)CC2)cc1` (stereo not drawn) [Example 13, 4-[[4-(4-Chloro-2-methylphenoxy)-1-piperidinyl]methyl]-α-(4-methylphenyl)-1-piperidineacetic acid] was tested. Which inhibition at 1 µM did it give?
Its inhibition at 1 µM is 87%.

Biological target: T2, human H1 receptor (Homo sapiens, UniProt P35367)
T2 construct: purchased Euroscreen SA, Brussels, Belgium ES-390-M; host or cells: recombinant CHO-K1 cells (membranes)
Test: Histamine H1 receptor binding, displacement of [3H]-pyrilamine
Conditions: 1 nM [3H]-pyrilamine; membranes of recombinant CHO-K1 cells expressing human H1 receptor; read-out: H1 pKi/[1328_S] (converted)

T2 sequence (P35367 whole entry): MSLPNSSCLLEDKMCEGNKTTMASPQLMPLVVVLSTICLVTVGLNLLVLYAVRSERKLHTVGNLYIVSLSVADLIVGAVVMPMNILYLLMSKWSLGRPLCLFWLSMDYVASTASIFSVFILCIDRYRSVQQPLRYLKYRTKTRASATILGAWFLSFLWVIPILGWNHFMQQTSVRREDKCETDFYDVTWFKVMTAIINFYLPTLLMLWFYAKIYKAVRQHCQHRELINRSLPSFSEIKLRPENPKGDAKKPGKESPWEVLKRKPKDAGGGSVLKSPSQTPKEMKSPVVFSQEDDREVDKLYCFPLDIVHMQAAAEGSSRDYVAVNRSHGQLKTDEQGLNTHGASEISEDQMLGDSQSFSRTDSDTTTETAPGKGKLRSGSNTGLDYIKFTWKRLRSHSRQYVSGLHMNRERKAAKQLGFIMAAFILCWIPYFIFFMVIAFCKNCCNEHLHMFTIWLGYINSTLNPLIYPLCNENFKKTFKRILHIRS

For `Cc1cc(Cl)ccc1OC1CCN(CC2CCN(C(C(=O)O)c3ccccc3C)CC2)CC1` (stereo not drawn) [Example 11, 4-[[4-(4-Chloro-2-methylphenoxy)-1-piperidinyl]methyl]-α-(2-methylphenyl)-1-piperidineacetic acid], which Ki is on record?
The Ki was 0.158 µM.

Which Ki does the source give for `COc1ccccc1C(C(=O)O)N1CCC(CN2CCC(Oc3ccc(Cl)c(Cl)c3)CC2)CC1` (stereo not drawn) [Example 4, 4-[[4-(3,4-Dichlorophenoxy)-1-piperidinyl]methyl]-α-(2-methoxyphenyl)-1-piperidineacetic acid] here?
The Ki was 0.1 µM.

Which Ki does the source give for `COc1ccccc1C(C(=O)O)N1CCC(CN2CCC(Oc3ccc(Cl)cc3C)CC2)CC1` (stereo not drawn) [Example 10, 4-[[4-(4-Chloro-2-methylphenoxy)-1-piperidinyl]methyl]-α-(2-methoxyphenyl)-1-piperidineacetic acid] here?
Its Ki is 0.251 µM.

With `Cc1ccc(C(C(=O)O)N2CCC(CN3CCC(Oc4ccc(Cl)c(C)c4Cl)CC3)CC2)cc1` (stereo not drawn) [Example 9, 4-[[4-(2,4-Dichloro-3-methylphenoxy)-1-piperidinyl]methyl]-α-(4-methylphenyl)-1-piperidineacetic acid] as the compound, how does the Ki read?
Its Ki is 0.0316 µM.

With `Cc1c(Cl)ccc(OC2CCN(CC3CCN(CC(=O)O)CC3)CC2)c1Cl` [Example 78, 4-[[4-(2,4-Dichloro-3-methylphenoxy)-1-piperidinyl]methyl]-1-piperidineacetic acid] as the compound, how does the Ki read?
Its Ki is 0.2 µM.

`O=C(O)C(c1ccc(F)cc1)N1CCC(CN2CCC(Oc3ccc(Cl)c(Cl)c3)CC2)CC1` (stereo not drawn) [Example 3, 4-[[4-(3,4-Dichlorophenoxy)-1-piperidinyl]methyl]-α-(4-fluorophenyl)-1-piperidineacetic acid] was tested. Which Ki did it give?
The Ki was 0.0398 µM.

With `O=C(O)CN1CCC(O)(CN2CCC(Oc3ccc(Cl)c(Cl)c3)CC2)CC1` [Example 82, 4-[[4-(3,4-Dichlorophenoxy)-1-piperidinyl]methyl]-4-hydroxy-1-piperidineacetic acid] as the compound, how does the Ki read?
The Ki was 0.1 µM.

Which Ki does the source give for `COc1ccccc1C(C(=O)O)N1CCC(O)(CN2CCC(Oc3ccc(Cl)c(Cl)c3)CC2)CC1` (stereo not drawn) [Example 19, 4-[[4-(3,4-Dichlorophenoxy)-1-piperidinyl]methyl]-4-hydroxy-α-(2-methoxyphenyl)-1-piperidineacetic acid] here?
The Ki was 0.00794 µM.

How did the Ki turn out when `Clc1ccc(OC2CCN(CC3CCN(Cc4nn[nH]n4)CC3)CC2)cc1Cl` [Example 100, 4-(3,4-dichlorophenoxy)-1-[[1-(2H-tetrazol-5-ylmethyl)-4-piperidinyl]methyl]-piperidine] was run?
The Ki was 0.0398 µM.

How did the Ki turn out when `COC(=O)CN1CCC(CN2CCC(Oc3ccc(Cl)cc3C)CC2)CC1` [Example 69, Methyl-4-[[4-(4-chloro-2-methylphenoxy)-1-piperidinyl]methyl]-1-piperidineacetate] was run?
The Ki was 0.126 µM.

Which Ki does the source give for `C[C@@H](C(=O)O)N1CCC(CN2CCC(Oc3ccc(Cl)c(Cl)c3)CC2)CC1` [Example 84, (2S)-2-(4-{[4-(3,4-Dichlorophenoxy)piperidin-1-yl]methyl}piperidin-1-yl)propanoic acid] here?
The Ki was 0.2 µM.

How did the Ki turn out when `Cc1c(Cl)ccc(OC2CCN(CC3CCN(C(C(=O)O)c4ccccc4)CC3)CC2)c1Cl` (stereo not drawn) [Example 2, 4-[[4-(2,4-Dichloro-3-methylphenoxy)-1-piperidinyl]methyl]-α-phenyl-1-piperidineacetic acid] was run?
Its Ki is 0.0316 µM.

How did the Ki turn out when `Cc1ccccc1C(C(=O)O)N1CCC(CN2CCC(Oc3ccc(Cl)c(C)c3Cl)CC2)CC1` (stereo not drawn) [Example 8, 4-[[4-(2,4-Dichloro-3-methylphenoxy)-1-piperidinyl]methyl]-α-(2-methylphenyl)-1-piperidineacetic acid] was run?
Its Ki is 0.0501 µM.

Which Ki does the source give for `Cc1c(Cl)ccc(OC2CCN(CC3CCN(C(C(=O)O)c4ccc(F)cc4)CC3)CC2)c1Cl` (stereo not drawn) [Example 15, 4-[[4-(2,4-Dichloro-3-methylphenoxy)-1-piperidinyl]methyl]-α-(4-fluorophenyl)-1-piperidineacetic acid] here?
The Ki was 0.0251 µM.

With `CC(=O)Nc1cccc(C(C(=O)O)N2CCC(CN3CCC(Oc4ccc(Cl)c(Cl)c4)CC3)CC2)c1` (stereo not drawn) [Example 14, α-[3-(Acetylamino)phenyl]-4-[[4-(3,4-dichlorophenoxy)-1-piperidinyl]methyl]-1-piperidineacetic acid] as the compound, how does the Ki read?
The Ki was 0.0251 µM.

`COc1ccccc1C(C(=O)O)N1CCC(CN2CCC(Oc3ccc(Cl)c(C)c3Cl)CC2)CC1` (stereo not drawn) [Example 7, 4-[[4-(2,4-Dichloro-3-methylphenoxy)-1-piperidinyl]methyl]-α-(2-methoxyphenyl)-1-piperidineacetic acid] was tested. Which Ki did it give?
Its Ki is 0.0794 µM.

How did the Ki turn out when `COc1ncc(C(C(=O)O)N2CCC(CN3CCC(Oc4ccc(Cl)c(Cl)c4)CC3)CC2)c(OC)n1` (stereo not drawn) [Example 12, α-[4-[[4-(3,4-Dichlorophenoxy)-1-piperidinyl]methyl]-1-piperidinyl]-2,4-dimethoxy-5-pyrimidineacetic acid] was run?
Its Ki is 0.2 µM.

How did the Ki turn out when `Cc1ccc(C(C(=O)O)N2CCC(O)(CN3CCC(Oc4ccc(Cl)c(Cl)c4)CC3)CC2)cc1` (stereo not drawn) [Example 18, 4-[[4-(3,4-Dichlorophenoxy)-1-piperidinyl]methyl]-4-hydroxy-α-(4-methylphenyl)-1-piperidineacetic acid] was run?
Its Ki is 0.0158 µM.

`Cc1ccc(C(C(=O)O)N2CCC(CN3CCC(Oc4ccc(Cl)c(Cl)c4)CC3)CC2)cc1` (stereo not drawn) [Example 6, 4-[[4-(3,4-Dichlorophenoxy)-1-piperidinyl]methyl]-α-(4-methylphenyl)-1-piperidineacetic acid] was tested. Which Ki did it give?
Its Ki is 0.02 µM.

With `O=C(O)C(c1ccccc1)N1CCC(O)(CN2CCC(Oc3ccc(Cl)c(Cl)c3)CC2)CC1` (stereo not drawn) [Example 17, 4-[[4-(3,4-Dichlorophenoxy)-1-piperidinyl]methyl]-4-hydroxy-α-phenyl-1-piperidineacetic acid] as the compound, how does the Ki read?
The Ki was 0.01 µM.

`O=S(=O)(NCCCN1CCC(CN2CCC(Oc3ccc(Cl)c(Cl)c3)CC2)CC1)C(F)(F)F` [Example 103, N-[3-[4-[[4-(3,4-Dichlorophenoxy)-1-piperidinyl]methyl]-1-piperidinyl]propyl]-1,1,1-trifluoro-methanesulfonamide] was tested. Which Ki did it give?
Its Ki is 0.02 µM.

Which Ki does the source give for `COC(=O)c1ccccc1CN1CCC(CN2CCC(Oc3ccc(Cl)c(Cl)c3)CC2)CC1` [Example 42, methyl 2-[(4-{[4-(3,4-dichlorophenoxy)piperidin-1-yl]methyl}piperidin-1-yl)methyl]benzoate] here?
Its Ki is 0.01 µM.

Which Ki does the source give for `Cc1ccccc1C(C(=O)O)N1CCC(CN2CCC(Oc3ccc(Cl)c(Cl)c3)CC2)CC1` (stereo not drawn) [Example 5, 4-[[4-(3,4-Dichlorophenoxy)-1-piperidinyl]methyl]-α-(2-methylphenyl)-1-piperidineacetic acid] here?
Its Ki is 0.0794 µM.

`Cc1ccc(C(C(=O)O)N2CCC(CN3CCC(Oc4ccc(Cl)cc4C)CC3)CC2)cc1` (stereo not drawn) [Example 13, 4-[[4-(4-Chloro-2-methylphenoxy)-1-piperidinyl]methyl]-α-(4-methylphenyl)-1-piperidineacetic acid] was tested. Which Ki did it give?
The Ki was 0.0251 µM.

With `O=C(O)CN1CCC(CN2CCC(Oc3ccc(Cl)c(Cl)c3)CC2)CC1` [Example 77, 4-[[4-(3,4-dichlorophenoxy)-1-piperidinyl]methyl]-1-piperidineacetic acid] as the compound, how does the Ki read?
Its Ki is 0.126 µM.
